Test results taken from patent US5132111A (priority 1990, dated 1992).
Non-standard residues stand in square brackets, D forms with d. Residues, ends and D or L forms follow the SMILES beside them. Nle = CCCC[C@H](N)C(=O)O

System: secretion of ACTH and β-END-LI

| Compound | secretion of ACTH (inhibition) | secretion of β-END-LI (inhibition) |
| --- | --- | --- |
| CCCC[C@H](N)C(=O)N[C@@H](CC(=O)O)C(=O)N[C@@H](CC(C)C)C(=O)N[C@@H](CO)C(=O)N[C@@H](Cc1ccccc1)C(=O)N[C@@H](Cc1c[nH]cn1)C(=O)N[C@@H](CC(C)C)C(=O)N[C@@H](CC(C)C)C(=O)N[C@@H](CCCNC(=N)N)C(=O)N[C@@H](CCC(=O)O)C(=O)N[C@H](C(=O)N[C@@H](CC(C)C)C(=O)N[C@@H](CCC(=O)O)C(=O)N[C@@H](CCSC)C(=O)N[C@@H](C)C(=O)N[C@@H](CCCNC(=N)N)C(=O)N[C@@H](C)C(=O)N[C@@H](CCC(=O)O)C(=O)N[C@@H](CCC(N)=O)C(=O)N[C@@H](CC(C)C)C(=O)N[C@@H](C)C(=O)N[C@@H](CCC(N)=O)C(=O)N[C@@H](CCC(N)=O)C(=O)N[C@@H](C)C(=O)N[C@@H](Cc1c[nH]cn1)C(=O)N[C@@H](CC(C)C)C(=O)N[C@@H](CC(N)=O)C(=O)N[C@@H](CCCNC(=N)N)C(=O)N[C@@H](CCCNC(=N)N)C(=O)N[C@@H](CC(C)C)C(=O)N[C@@H](CCSC)C(=O)N[C@@H](CCC(=O)O)C(=O)N[C@H](C(=O)N[C@H](C(N)=O)[C@@H](C)CC)[C@@H](C)CC)C(C)C (H-[Nle]DLSFHLLREVLEMARAEQLAQQAHLNRRLMEII-NH2) | inhibits | inhibits |
| CCCC[C@H](NC(=O)[C@H](CCC(=O)O)NC(=O)[C@H](CC(C)C)NC(=O)[C@H](CCCC)NC(=O)[C@H](CCC(=O)O)NC(=O)[C@H](CCCNC(=N)N)NC(=O)[C@H](CC(C)C)NC(=O)[C@H](CC(C)C)NC(=O)[C@H](CCC(=O)O)NC(=O)[C@H](Cc1ccccc1)NC(=O)[C@@H](NC(=O)[C@H](CC(C)C)NC(=O)[C@@H](N)CC(=O)O)[C@@H](C)O)C(=O)N[C@@H](C)C(=O)N[C@@H](CCCNC(=N)N)C(=O)N[C@@H](C)C(=O)N[C@@H](CCC(=O)O)C(=O)N[C@@H](CCC(N)=O)C(=O)N[C@@H](CCC(=O)O)C(=O)N[C@@H](C)C(=O)N[C@@H](CCC(=O)O)C(=O)N[C@@H](CCC(N)=O)C(=O)N[C@@H](C)C(=O)N[C@@H](C)C(=O)N[C@@H](CC(C)C)C(=O)N[C@@H](CC(N)=O)C(=O)N[C@@H](CCCNC(=N)N)C(=O)N[C@@H](CC(C)C)C(=O)N[C@@H](CC(C)C)C(=O)N[C@@H](CC(C)C)C(=O)N[C@@H](CCC(=O)O)C(=O)N[C@@H](CCC(=O)O)C(=O)N[C@@H](C)C(N)=O [[Glu^13,Nle^18,21]-AAHC(9-41)] (H-DLTFELLRE[Nle]LE[Nle]ARAEQEAEQAALNRLLLEEA-NH2) | inhibits | inhibits |
| CCCC[C@H](NC(=O)[C@H](CCC(=O)O)NC(=O)[C@H](CC(C)C)NC(=O)[C@H](CCCC)NC(=O)[C@H](CCC(=O)O)NC(=O)[C@H](CCCNC(=N)N)NC(=O)[C@H](CC(C)C)NC(=O)[C@H](CC(C)C)NC(=O)[C@H](Cc1c[nH]cn1)NC(=O)[C@H](Cc1ccccc1)NC(=O)[C@@H](NC(=O)[C@H](CC(C)C)NC(=O)[C@H](CC(=O)O)NC(=O)[C@@H](N)CC(C)C)[C@@H](C)O)C(=O)N[C@@H](C)C(=O)N[C@@H](CCCNC(=N)N)C(=O)N[C@@H](C)C(=O)N[C@@H](CCC(=O)O)C(=O)N[C@@H](CCC(N)=O)C(=O)N[C@@H](CCC(=O)O)C(=O)N[C@@H](C)C(=O)N[C@@H](CCC(=O)O)C(=O)N[C@@H](CCC(N)=O)C(=O)N[C@@H](C)C(=O)N[C@@H](C)C(=O)N[C@@H](CC(C)C)C(=O)N[C@@H](CC(N)=O)C(=O)N[C@@H](CCCNC(=N)N)C(=O)N[C@@H](CC(C)C)C(=O)N[C@@H](CC(C)C)C(=O)N[C@@H](CC(C)C)C(=O)N[C@@H](CCC(=O)O)C(=O)N[C@@H](CCC(=O)O)C(=O)N[C@@H](C)C(N)=O [[Nle^18,21]-AAHC(8-41)] (H-LDLTFHLLRE[Nle]LE[Nle]ARAEQEAEQAALNRLLLEEA-NH2) | inhibits | inhibits |
| CCCC[C@H](NC(=O)[C@H](CCC(=O)O)NC(=O)[C@H](CC(C)C)NC(=O)[C@H](CCCC)NC(=O)[C@H](CCC(=O)O)NC(=O)[C@H](CCCNC(=N)N)NC(=O)[C@H](CC(C)C)NC(=O)[C@H](CC(C)C)NC(=O)[C@H](Cc1c[nH]cn1)NC(=O)[C@H](Cc1ccccc1)NC(=O)[C@@H](NC(=O)[C@H](CC(C)C)NC(=O)[C@@H](N)CC(=O)O)[C@@H](C)O)C(=O)N[C@@H](C)C(=O)N[C@@H](CCCNC(=N)N)C(=O)N[C@@H](C)C(=O)N[C@@H](CCC(=O)O)C(=O)N[C@@H](CCC(N)=O)C(=O)N[C@@H](CCC(=O)O)C(=O)N[C@@H](C)C(=O)N[C@@H](CCC(=O)O)C(=O)N[C@@H](CCC(N)=O)C(=O)N[C@@H](C)C(=O)N[C@@H](C)C(=O)N[C@@H](CC(C)C)C(=O)N[C@@H](CC(N)=O)C(=O)N[C@@H](CCCNC(=N)N)C(=O)N[C@@H](CC(C)C)C(=O)N[C@@H](CC(C)C)C(=O)N[C@@H](CC(C)C)C(=O)N[C@@H](CCC(=O)O)C(=O)N[C@@H](CCC(=O)O)C(=O)N[C@@H](C)C(N)=O [[Nle^18,21]-AAHC(9-41)] (H-DLTFHLLRE[Nle]LE[Nle]ARAEQEAEQAALNRLLLEEA-NH2) | inhibits | inhibits |
| CCCC[C@H](NC(=O)[C@H](CCC(=O)O)NC(=O)[C@H](CC(C)C)NC(=O)[C@H](CCCC)NC(=O)[C@H](CCC(=O)O)NC(=O)[C@H](CCCNC(=N)N)NC(=O)[C@H](CC(C)C)NC(=O)[C@H](CC(C)C)NC(=O)[C@H](Cc1c[nH]cn1)NC(=O)[C@H](Cc1ccccc1)NC(=O)[C@@H](NC(=O)[C@@H](N)CC(C)C)[C@@H](C)O)C(=O)N[C@@H](C)C(=O)N[C@@H](CCCNC(=N)N)C(=O)N[C@@H](C)C(=O)N[C@@H](CCC(=O)O)C(=O)N[C@@H](CCC(N)=O)C(=O)N[C@@H](CCC(=O)O)C(=O)N[C@@H](C)C(=O)N[C@@H](CCC(=O)O)C(=O)N[C@@H](CCC(N)=O)C(=O)N[C@@H](C)C(=O)N[C@@H](C)C(=O)N[C@@H](CC(C)C)C(=O)N[C@@H](CC(N)=O)C(=O)N[C@@H](CCCNC(=N)N)C(=O)N[C@@H](CC(C)C)C(=O)N[C@@H](CC(C)C)C(=O)N[C@@H](CC(C)C)C(=O)N[C@@H](CCC(=O)O)C(=O)N[C@@H](CCC(=O)O)C(=O)N[C@@H](C)C(N)=O [[Nle^18,21]-AAHC(10-41)] (H-LTFHLLRE[Nle]LE[Nle]ARAEQEAEQAALNRLLLEEA-NH2) | inhibits | inhibits |
| H-Asp-CML-Thr-Leu-Glu -CML-CML-Arg-Glu-Met-CML-Glu-Met-CMA-Arg-Ala-Glu-Gln-CML -Ala-Glu-Gln-Ala-CMA-CML-Asn-Arg-Leu-CML-Leu-Glu-Glu-CMA-NH2 | inhibits | inhibits |
| H-DLTFELLREVLEVARAEQLAQQAHSNRRLMEII-NH2 [[Glu^13, Val^21, Arg^36]-rCRF (9-41)] | inhibits | inhibits |
| H-DLTFHLLREMLEMARAEQEAEQAALNRLLLEEA-NH2 [AAHC(9-41)] | inhibits |  |
| H-DLTFHLLREVAEMTRAEQLAQQAHSNRRLMEII-NH2 [[Ala^19, Thr^22, Arg^36]-hCRF (9-41)] | inhibits | inhibits |
| H-DLTFHLLREVLEMARAEQLAQQAHSNRRLMEII-NH2 [[Arg^36]-rCRF (9-41)] | inhibits |  |

System: cultured rat pituitary cells
Assay type: cell-based

| Compound | secretion of ACTH | secretion of β-endorphin (β-END-LI) |
| --- | --- | --- |
| H-SQEPPISLDLTFALLREMLEMARAEQEAEQAALNRLLLEEA-NH2 [[Ala13]-AAHC] | stimulates | stimulates |
| H-SQEPPISLDLTFHLLREMLEMARAEQEAEQAALNRLLLEEA-NH2 [AAHC] | biologically potent to stimulate the secretion | biologically potent to stimulate the secretion |
| H-SQEPPISLDLTFHLLREVLEMARAEQLAEQAHSNRRLLEII-NH2 [[Gln^2, Glu^29, Leu^38]-rCRF] | stimulates | stimulates |
| H-SQEPPISLDLTFHLLREVLEMTRADQLAQQAHSNRRLLDIA-NH2 [[Arg^23,36]-oCRF] | stimulates | stimulates |
| H-SQEPPISLDLTFHLLREVLE[Nle]TRADQLAQQAHSNRRLLDIA-NH2 [[Nle^21, Arg^23,36]-oCRF] | stimulates | stimulates |
| H-SQEPPISLDLTFHLLRE[Nle]LE[Nle]ARAEQEAEQAALNRLLLEEA-NH2 [[Nle^18, 21]-AAHC] | stimulates | stimulates |
| H-SQEPPISLDLTFHLLRE[Nle]LE[Nle]TRADQLRQQAHSNRRLLDIA-NH2 [[Nle^18,21,Arg^23,28,36]-oCRF] | stimulates | stimulates |
| H-SQEPPISLELTFHLLRE[Nle]LE[Nle]ARAEQEAEQAALNRLLLEEA-NH2 [[Glu^9, Nle^18, 21]-AAHC] | stimulates | stimulates |
| H-SQE[dP]PISLDLTFHLLRE[Nle]LE[Nle]ARAEQEAEQAALNRLLLEEA-NH2 [[D-Pro^4, Nle^18,21]-AAHC] | stimulates | stimulates |
| H-SQ[dY][dP]PISLDLTFHLLRE[Nle]LE[Nle]ARAEQEAEQAALNRLLLEEA-NH2 [[D-Tyr^3, D-Pro^4, Nle^18, 21]-AAHC] | stimulates | stimulates |
| H-Ser-Gln-Glu-Pro-Pro-Ile-Ser-Leu-Asp-CML-Thr-Leu-Glu-Leu -Leu-Arg-Glu-Met-Leu-Glu-Met-Ala-Arg-Ala-Glu-Gln-Glu-Ala -Glu-Gln-Ala-Ala-Leu-Asn-Arg-Leu-Tyr-Leu-Glu-Glu-Ala-NH2 [[Leu^12, Glu^13, Tyr^37]-AAHC] | stimulates | stimulates |
| H-VSEPPISLDLTFHLLREVLEMARAEQLAQQAHSNRRLMEEI-NH2 [[Val^1, Ser^2, Arg^36, Glu^40]-rCRF] | stimulates | stimulates |
